Target: T1, ligand binding domain of human FXR (Homo sapiens, UniProt Q96RI1)
T1 construct: purchased Thermofisher (LanthaScreen) PV4833
T1 sequence (Q96RI1 262-486 limits assumed): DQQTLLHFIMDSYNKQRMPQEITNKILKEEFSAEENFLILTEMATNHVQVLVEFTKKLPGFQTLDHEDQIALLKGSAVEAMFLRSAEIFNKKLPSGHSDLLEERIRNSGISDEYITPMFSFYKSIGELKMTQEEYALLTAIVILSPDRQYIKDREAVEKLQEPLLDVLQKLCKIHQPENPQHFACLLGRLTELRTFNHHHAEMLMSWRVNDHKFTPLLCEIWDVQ
Experiment: biochemical
Settings: for Emax: extent of activation relative to GW4064, read-out: Ligand Binding % Efficacy; for EC50: −log EC50, concentration required to produce 50% activation, FRET 520 nm/495 nm, 1 hour at room temperature, read-out: Ligand Binding pEC50 (converted)
Procedure: The affinity of FXR ligands for the ligand binding domain of FXR was determined using a commercially available human FXR ligand binding assay (LanthaScreen, Thermofisher Cat #PV4833). […] Binding of FXR ligands to the FXR ligand binding domain promotes binding of the fluorescein-labelled SRC2-2 peptide. This causes a FRET signal between the terbium-labelled anti-GST antibody and the fluorescein-labelled SRC peptide which are both bound to the FXR ligand binding domain.
Test compounds are dissolved in DMSO and a 3-fold serial dilution series is generated, then further diluted into assay buffer. The compounds are mixed with 5 nM GST-tagged FXR ligand binding domain, 5 nM Tb-labelled anti-GST antibody and 500 nM fluorescein-labelled SRC2-2 peptide in a pH7.4 buffer. The reaction is incubated at room temperature for 1 hour, then the FRET signal is measured as the ratio of the 520 nm/495 nm emission following excitation at 340 nm. The change in FRET signal is plotted against the test article concentration and fit to a 3-parameter logistical equation.

SMILES | Emax | EC50
O=C(O)c1ccc(N2C(=O)[C@@H]3C[C@H]2C[C@H]3OCc2c(C3CC3)cnn2-c2c(Cl)cccc2Cl)cc1 [Compound I-11, 4-[(1S,4R,5R)-5-{[4-cyclopropyl-1-(2,6-dichlorophenyl)-1H-pyrazol-5-yl]methoxy}-3-oxo-2-azabicyclo[2.2.1]heptan-2-yl]benzoic acid] | 152% | 39.8 nM
Cc1cccc(C)c1-n1ncc(C2CC2)c1CO[C@@H]1C[C@@H]2C[C@H]1CN2c1ccc(CCC(=O)O)cc1F [Compound I-36, 3-{4-[(1S,4S,5R)-5-{[4-cyclopropyl-1-(2,6-dimethylphenyl)-1H-pyrazol-5-yl]methoxy}-2-azabicyclo[2.2.1]heptan-2-yl]-3-fluorophenyl}propanoic acid] | 134% | 158 nM
O=C(O)CCc1ccc(N2C[C@@H]3C[C@H]2C[C@H]3OCc2c(C3CC3)cnn2-c2c(F)cccc2Cl)c(F)c1 [Compound I-38, 3-{4-[(1S,4S,5R)-5-{[1-(2-chloro-6-fluorophenyl)-4-cyclopropyl-1H-pyrazol-5-yl]methoxy}-2-azabicyclo[2.2.1]heptan-2-yl]-3-fluorophenyl}propanoic acid] | 185% | 158 nM
O=C(O)c1ccc(N2C[C@@H]3C[C@H]2C[C@H]3OCc2c(C3CC3)cnn2-c2c(F)cccc2Cl)cc1F [Compound I-9, 4-[(1S,4S,5R)-5-{[1-(2-chloro-6-fluorophenyl)-4-cyclopropyl-1H-pyrazol-5-yl]methoxy}-2-azabicyclo[2.2.1]heptan-2-yl]-2-fluorobenzoic acid] | 164% | 39.8 nM
O=C(O)c1c(F)cc(N2C[C@@H]3C[C@H]2C[C@H]3OCc2c(C3CC3)cnn2-c2c(Cl)cccc2Cl)cc1F [Compound I-3, 4-[(1S,4S,5R)-5-{[4-cyclopropyl-1-(2,6-dichlorophenyl)-1H-pyrazol-5-yl]methoxy}-2-azabicyclo[2.2.1]heptan-2-yl]-2,6-difluorobenzoic acid] | 156% | 39.8 nM
O=C(NS(=O)(=O)C1CCOCC1)c1ccc(N2C(=O)[C@@H]3C[C@H]2C[C@H]3OCc2c(C3CC3)cnn2-c2c(Cl)cccc2Cl)cc1 [Compound I-26, 4-((1S,4R,5R)-5-((4-cyclopropyl-1-(2,6-dichlorophenyl)-1H-pyrazol-5-yl)methoxy)-3-oxo-2-azabicyclo[2.2.1]heptan-2-yl)-N-((tetrahydro-2H-pyran-4-yl)sulfonyl)benzamide] | 169% | 10 nM
O=C(NS(=O)(=O)C1CCOCC1)c1ccc(N2C(=O)[C@@H]3C[C@H]2C[C@H]3OCc2c(C3CC3)cnn2-c2c(Cl)cccc2Cl)cc1F [Compound I-27, 4-((1S,4R,5R)-5-((4-cyclopropyl-1-(2,6-dichlorophenyl)-1H-pyrazol-5-yl)methoxy)-3-oxo-2-azabicyclo[2.2.1]heptan-2-yl)-2-fluoro-N-((tetrahydro-2H-pyran-4-yl)sulfonyl)benzamide] | 185% | 5.01 nM
CC1(C)CC(S(=O)(=O)NC(=O)c2ccc(N3C[C@@H]4C[C@H]3C[C@H]4OCc3c(C4CC4)cnn3-c3c(Cl)cccc3Cl)cc2)CCO1 (stereo partly drawn) [Compound I-21, 4-[(1S,4S,5R)-5-{[4-cyclopropyl-1-(2,6-dichlorophenyl)-1H-pyrazol-5-yl]methoxy}-2-azabicyclo[2.2.1]heptan-2-yl]-N-[(2,2-dimethyloxan-4-yl)sulfonyl]benzamide] | 174% | 1.58 nM
O=C(NS(=O)(=O)C1CCOCC1)c1ccc(N2C[C@@H]3C[C@H]2C[C@H]3OCc2c(C3CC3)cnn2-c2c(Cl)cccc2Cl)cn1 [Compound I-25, 5-((1S,4S,5R)-5-((4-cyclopropyl-1-(2,6-dichlorophenyl)-1H-pyrazol-5-yl)methoxy)-2-azabicyclo[2.2.1]heptan-2-yl)-N-((tetrahydro-2H-pyran-4-yl)sulfonyl)picolinamide] | 130% | 25.1 nM
O=C(O)CCc1ccc(N2C(=O)[C@@H]3C[C@H]2C[C@H]3OCc2c(C3CC3)cnn2-c2c(Cl)cccc2Cl)c(F)c1 [Compound I-39, 3-{4-[(1S,4R,5R)-5-{[4-cyclopropyl-1-(2,6-dichlorophenyl)-1H-pyrazol-5-yl]methoxy}-3-oxo-2-azabicyclo[2.2.1]heptan-2-yl]-3-fluorophenyl}propanoic acid] | 136% | 
O=C(O)c1ncc(N2C[C@@H]3C[C@H]2C[C@H]3OCc2c(C3CC3)cnn2-c2c(Cl)cccc2Cl)cn1 [Compound I-6, 5-[(1S,4S,5R)-5-{[4-cyclopropyl-1-(2,6-dichlorophenyl)-1H-pyrazol-5-yl]methoxy}-2-azabicyclo[2.2.1]heptan-2-yl]pyrimidine-2-carboxylic acid] | 101% | 
O=C(O)c1ccc(N2C[C@@H]3C[C@H]2C[C@H]3OCc2c(C3CC3)cnn2-c2c(Cl)cccc2Cl)cn1 [Compound I-5, 5-[(1S,4S,5R)-5-{[4-cyclopropyl-1-(2,6-dichlorophenyl)-1H-pyrazol-5-yl]methoxy}-2-azabicyclo[2.2.1]heptan-2-yl]pyridine-2-carboxylic acid] | 119% | 251 nM
O=C(O)C1CC(c2ccc(N3C[C@@H]4C[C@H]3C[C@H]4OCc3c(C4CC4)cnn3-c3c(Cl)cccc3Cl)c(F)c2)C1 (stereo partly drawn) [Compound I-40, 3-{4-[(1S,4S,5R)-5-{[4-cyclopropyl-1-(2,6-dichlorophenyl)-1H-pyrazol-5-yl]methoxy}-2-azabicyclo[2.2.1]heptan-2-yl]-3-fluorophenyl}cyclobutane-1-carboxylic acid] | 156% | 31.6 nM
O=C(O)c1ccc(N2C[C@@H]3C[C@H]2C[C@H]3OCc2c(C3CC3)cnn2-c2c(Cl)cccc2Cl)nc1 [Compound I-4, 6-[(1S,4S,5R)-5-{[4-cyclopropyl-1-(2,6-dichlorophenyl)-1H-pyrazol-5-yl]methoxy}-2-azabicyclo[2.2.1]heptan-2-yl]pyridine-3-carboxylic acid] | 132% | 100 nM
C[C@@H]1[C@@H]2C[C@@H](C[C@H]2OCc2c(C3CC3)cnn2-c2c(Cl)cccc2Cl)N1c1ccc(C(=O)NS(=O)(=O)C2CC2)c(F)c1 [Compound I-29, N-(cyclopropanesulfonyl)-4-[(1S,3R,4S,5R)-5-{[4-cyclopropyl-1-(2,6-dichlorophenyl)-1H-pyrazol-5-yl]methoxy}-3-methyl-2-azabicyclo[2.2.1]heptan-2-yl]-2-fluorobenzamide] | 59% | 200 nM
C[C@@H]1[C@@H]2C[C@@H](C[C@H]2OCc2c(C3CC3)cnn2-c2c(Cl)cccc2Cl)N1c1ccc(C(=O)NS(=O)(=O)C2CCOCC2)c(F)c1 [Compound I-28, 4-((1S,3R,4S,5R)-5-((4-cyclopropyl-1-(2,6-dichlorophenyl)-1H-pyrazol-5-yl)methoxy)-3-methyl-2-azabicyclo[2.2.1]heptan-2-yl)-2-fluoro-N-((tetrahydro-2H-pyran-4-yl)sulfonyl)benzamide] | 56% | 398 nM
O=C(O)c1ccc(N2C(=O)[C@@H]3C[C@H]2C[C@H]3OCc2c(C3CC3)cnn2-c2c(Cl)cccc2Cl)c(F)c1 [Compound I-13, 4-[(1S,4R,5R)-5-{[4-cyclopropyl-1-(2,6-dichlorophenyl)-1H-pyrazol-5-yl]methoxy}-3-oxo-2-azabicyclo[2.2.1]heptan-2-yl]-3-fluorobenzoic acid] | 142% | 158 nM
C[C@@H]1[C@@H]2C[C@@H](C[C@H]2OCc2c(C3CC3)cnn2-c2c(Cl)cccc2Cl)N1c1ccc(C(=O)O)c(F)c1 [Compound I-15, 4-[(1S,3R,4S,5R)-5-{[4-cyclopropyl-1-(2,6-dichlorophenyl)-1H-pyrazol-5-yl]methoxy}-3-methyl-2-azabicyclo[2.2.1]heptan-2-yl]-2-fluorobenzoic acid] | 44% | 1000 nM
Cc1cccc(Cl)c1-n1ncc(C2CC2)c1CO[C@@H]1C[C@@H]2C[C@H]1CN2c1ccc(C(=O)O)c(F)c1 [Compound I-8, 4-[(1S,4S,5R)-5-{[1-(2-chloro-6-methylphenyl)-4-cyclopropyl-1H-pyrazol-5-yl]methoxy}-2-azabicyclo[2.2.1]heptan-2-yl]-2-fluorobenzoic acid] | 164% | 7.94 nM

Source: patent US11753410B2, “Hormone receptor modulators for treating metabolic mutagenic and fibrotic conditions and disorders” (priority 2017, dated 2023)
